According to paper PMC10208570, “Peptidomimetic antibiotics disrupt the lipopolysaccharide transport bridge of drug-resistant Enterobacteriaceae” (Science Advances, 2023):
Converted amounts (≈) assume the structure as drawn. Where two headings read alike, the source gives them in different places. Where a SMILES comes first, the peptide text is derived from it. Bridges are numbered along the chain shown (N, C = ends). [ ]: non-standard residue; d: D form. The star is where a group is joined. Val(Nα-amidino) = CC(C)[C@H](NC(=N)N)C(=O)*; Hyp = O=C(O)[C@@H]1C[C@@H](O)CN1; Pen = CC(C)(S)[C@H](N)C(=O)O; dDab = NCC[C@@H](N)C(=O)O; Dab = NCC[C@H](N)C(=O)O

What was measured:
human red blood cells = test: Haemolysis; type: cell-based; settings: PBS-washed human red blood cells; 1 h at 200 mg/liter, 37°C; OD 540 nm; versus 100% lysis control 2.5% Triton X-100; biological replicates
Procedure: To test their hemolytic potential, compounds were incubated in the presence of phosphate-buffered saline (PBS)–washed human red blood cells. After 1-hour incubation at 200 mg/liter and 37°C, the samples were centrifuged (3220g), the supernatants were diluted in Dulbecco’s PBS, and optical density at 540 nm was determined. The hemolysis induced by the compound was calculated versus a 100% lysis control prepared with 2.5% Triton X-100 (table S4A).

Plasma protein binding [1] = type: in vitro ADME, human; settings: mass balance method, ultrafiltration 30-kDa cutoff; pooled human plasma adjusted to pH 7.5; 10 mg/liter; 30 min at 37°C; biological replicates; read-out: Plasma protein binding (% bound) Human (converted)
Procedure: (§1) After ultrafiltration, protein binding was determined by subtracting the percentage of compound in ultrafiltrate from the total amount of compound in spiked plasma (table S4A).

[2] = tested on: K. pneumoniae NCTC 13443 (NDM-1) LptA Q62L mutant; test: microbe, parasite or virus in culture; settings: for MIC K. pneumoniae NCTC 13443 (NDM-1) Q62L mutant: CLSI method, clone harboring LptA Q62L
In short: (§2)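 First, MICs were measured per CLSI. Next, organisms underwent serial passage. Finally, resistant mutants were isolated, their MICs determined, and whole genomes sequenced with bioinformatic analysis.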

[3] = tested on: E. coli ATCC 25922 (parent / WT); test: microbe, parasite or virus in culture; settings: for MIC E. coli ATCC 25922 Parent: CLSI method, parent strain
In short: as §2

[4] = tested on: E. coli ATCC 25922 LptA Q62L mutant; test: microbe, parasite or virus in culture; settings: for MIC E. coli ATCC 25922 Q62L mutant: CLSI method, clone harboring LptA Q62L
In short: as §2

[5] = tested on: K. pneumoniae ATCC 43816 (parent / WT); test: microbe, parasite or virus in culture; settings: ATCC 43816
In short: as §2

[6] = tested on: K. pneumoniae NCTC 13443 (NDM-1) (parent / WT); test: microbe, parasite or virus in culture; settings: for MIC K. pneumoniae NCTC 13443 (NDM-1) Parent: CLSI method, parent strain
In short: as §2

Plasma protein binding [7] = type: in vitro ADME, mouse; settings: mass balance method, ultrafiltration 30-kDa cutoff; pooled mouse plasma adjusted to pH 7.5; 10 mg/liter; 30 min at 37°C; biological replicates; read-out: Plasma protein binding (% bound) Mouse (converted)
Procedure: as §1

[8] = tested on: Salmonella enterica subsp. enterica; settings: CLSI microdilution method; LptA sequence identity 91
Procedure: (§3) MIC assays [Clinical and Laboratory Standards Institute (CLSI) methodology] and serial passage studies were performed as described by Luther et al. ([6]). […] Resistant mutants were isolated, and their MIC values were determined and sent to Microbes NG (Birmingham, United Kingdom) for whole-genome sequencing and bioinformatic analysis.

Proteus vulgaris = settings: CLSI microdilution method; LptA sequence identity 55
Procedure: as §3

Hafnia alvei = settings: CLSI microdilution method; LptA sequence identity 72
Procedure: as §3

Enterobacter aerogenes = settings: CLSI microdilution method; LptA sequence identity 88
Procedure: as §3

Klebsiella oxytoca = settings: CLSI microdilution method; LptA sequence identity 100
Procedure: as §3

Citrobacter freundii = settings: CLSI microdilution method; LptA sequence identity 92
Procedure: as §3

Morganella morganii = settings: CLSI microdilution method; LptA sequence identity 57
Procedure: as §3

Escherichia coli = settings: CLSI microdilution method; LptA sequence identity 100
Procedure: as §3

Moraxella catarrhalis = settings: CLSI microdilution method; LptA sequence identity 28
Procedure: as §3

Providencia stuartii = settings: CLSI microdilution method; LptA sequence identity 55
Procedure: as §3

Pantoea agglomerans = settings: CLSI microdilution method; LptA sequence identity 69
Procedure: as §3

[9] = tested on: Stenotrophomonas maltophilia; settings: CLSI microdilution method; LptA sequence identity 25
Procedure: as §3

Enterobacter cloacae = settings: CLSI microdilution method; LptA sequence identity 86
Procedure: as §3

Providencia rettgeri = settings: CLSI microdilution method; LptA sequence identity 54
Procedure: as §3

Shigella flexneri = settings: CLSI microdilution method; LptA sequence identity 100
Procedure: as §3

Proteus mirabilis = settings: CLSI microdilution method; LptA sequence identity 54
Procedure: as §3

Serratia marcescens = settings: CLSI microdilution method; LptA sequence identity 64
Procedure: as §3

Klebsiella pneumoniae = settings: CLSI microdilution method; LptA sequence identity 88
Procedure: as §3

Raoultella planticola = settings: CLSI microdilution method; LptA sequence identity 84
Procedure: as §3

in vitro = type: cell-based; settings: human
Procedure: The cytotoxicity of compounds was determined by determining the number of viable cells using the Sigma Cell Counting Kit-8 (WST-8). HeLa cells were incubated at 37°C and 5% CO2 for 24 hours, after which the medium was replaced with fresh medium containing dilutions of compounds. […]

Row | Structure (SMILES) | Haemolysis % at 0.2 g/L (human red blood cells) [%] | fraction unbound at 30 min, 10 mg/liter (Plasma protein binding [1]) | MIC K. pneumoniae NCTC 13443 (NDM-1) Q62L mutant [2] [micrograms per milliliter] | MIC E. coli ATCC 25922 Parent [3] [micrograms per milliliter] | MIC E. coli ATCC 25922 Q62L mutant [4] [micrograms per milliliter] | MIC K. pneumoniae ATCC 43816 Parent [5] [micrograms per milliliter] | MIC K. pneumoniae NCTC 13443 (NDM-1) Parent [6] [micrograms per milliliter] | fraction unbound at 30 min, 10 mg/liter (Plasma protein binding [7]) | MIC Salmonella enterica subsp. enterica [8] [µg/mL] | MIC Proteus vulgaris (Proteus vulgaris) [µg/mL] | MIC Hafnia alvei (Hafnia alvei) [µg/mL] | MIC Enterobacter aerogenes (Enterobacter aerogenes) [µg/mL] | MIC Klebsiella oxytoca (Klebsiella oxytoca) [µg/mL] | MIC Citrobacter freundii (Citrobacter freundii) [µg/mL] | MIC Morganella morganii (Morganella morganii) [µg/mL] | MIC Escherichia coli (Escherichia coli) [µg/mL] | MIC Moraxella catarrhalis (Moraxella catarrhalis) [µg/mL] | MIC Providencia stuartii (Providencia stuartii) [µg/mL] | MIC Pantoea agglomerans (Pantoea agglomerans) [µg/mL] | MIC Stenotrophomonas maltophilia [9] [µg/mL] | other results
1 | CC[C@H](C)[C@H](NC(=O)[C@@H]1C[C@@H](O)CN1C(=O)[C@@H](NC(=N)N)C(C)C)C(=O)N[C@H](C(=O)N[C@@H](Cc1ccc(O)cc1)C(=O)N[C@@H]1C(=O)N[C@@H](CC(N)=O)C(=O)N[C@@H](CCCNC(=N)N)C(=O)N[C@@H](CCN)C(=O)N[C@@H]([C@@H](C)O)C(=O)N[C@H](CCN)C(=O)N[C@@H](CCCCN)C(=O)N[C@H](C(=O)N[C@@H](CCN)C(=O)N[C@@H](CCCNC(=N)N)C(=O)N[C@@H](Cc2ccc(O)cc2)C(=O)O)CSSC1(C)C)[C@@H](C)O [Compound 7] ({Val(Nα-amidino)}-[Hyp]ITY[Pen]NR[Dab]T[dDab]KC[Dab]RY-OH; disulfide 5-12) | 0 | 0.19 | >8 | 0.063 | 4 | 0.125 | 0.5 | 0.06 | 1 (≈ 0.5 µM) | > 8 | 4 (≈ 2 µM) | 1 (≈ 0.5 µM) | 0.5 (≈ 0.25 µM) | 0.5 (≈ 0.25 µM) | > 8 | 0.06 (≈ 0.03 µM) | > 8 | > 8 | > 8 | > 8 | MIC Klebsiella pneumoniae NCTC 13443 LptA Q62L (5x) ([2]; Table S9 panel): > 16 µg/mL; MIC Escherichia coli ATCC 25922 WT ([3]; Table S9 panel, WT): 0.125 µg/mL (≈ 0.0625 µM); MIC Escherichia coli ATCC 25922 LptA Q62L (7x) ([4]; Table S9 panel): 2 µg/mL (≈ 0.999 µM); MIC Klebsiella pneumoniae ATCC 43816 WT [5]: 0.25 µg/mL (≈ 0.125 µM); MIC Klebsiella pneumoniae NCTC 13443 WT ([6]; Table S9 panel, WT): 1 µg/mL (≈ 0.5 µM); MIC Enterobacter cloacae (Enterobacter cloacae): 0.5 µg/mL (≈ 0.25 µM); MIC Providencia rettgeri (Providencia rettgeri): > 8 µg/mL; MIC Shigella flexneri (Shigella flexneri): 0.06 µg/mL (≈ 0.03 µM); MIC Proteus mirabilis (Proteus mirabilis): > 8 µg/mL; MIC Serratia marcescens (Serratia marcescens): > 8 µg/mL; MIC Klebsiella pneumoniae (Klebsiella pneumoniae): 0.25 µg/mL (≈ 0.125 µM); MIC Raoultella planticola (Raoultella planticola): 0.25 µg/mL (≈ 0.125 µM); IC50 at 48 h (in vitro): 456 µM
2 | CC[C@H](C)[C@H](NC(=O)[C@@H]1C[C@@H](O)CN1C(=O)[C@@H](N)C(C)C)C(=O)N[C@H](C(=O)N[C@@H](Cc1ccc(O)cc1)C(=O)N[C@@H]1C(=O)N[C@@H](CC(N)=O)C(=O)N[C@@H](CCCNC(=N)N)C(=O)N[C@@H](CCN)C(=O)N[C@@H]([C@@H](C)O)C(=O)N[C@H](CCN)C(=O)N[C@@H](CCCCN)C(=O)N[C@H](C(=O)N[C@@H](CCN)C(=O)N[C@@H](CCCNC(=N)N)C(=O)N[C@@H](Cc2ccc(O)cc2)C(=O)O)CSSC1(C)C)[C@@H](C)O [Compound 6] (H-V[Hyp]ITY[Pen]NR[Dab]T[dDab]KC[Dab]RY-OH; disulfide 6-13) | 0 | 0.38 | >8 | 0.125 | 2 | 0.25 | 2 | 0.11 | 0.5 (≈ 0.255 µM) | > 8 | 2 (≈ 1.02 µM) | 0.5 (≈ 0.255 µM) | 0.25 (≈ 0.128 µM) | 0.13 (≈ 0.0663 µM) | > 8 | 0.03 (≈ 0.0153 µM) | > 8 | > 8 | 4 (≈ 2.04 µM) | > 8 | MIC Enterobacter cloacae (Enterobacter cloacae): 0.13 µg/mL (≈ 0.0663 µM); MIC Providencia rettgeri (Providencia rettgeri): > 8 µg/mL; MIC Shigella flexneri (Shigella flexneri): 0.03 µg/mL (≈ 0.0153 µM); MIC Proteus mirabilis (Proteus mirabilis): > 8 µg/mL; MIC Serratia marcescens (Serratia marcescens): > 8 µg/mL; MIC Klebsiella pneumoniae (Klebsiella pneumoniae): 0.13 µg/mL (≈ 0.0663 µM); MIC Raoultella planticola (Raoultella planticola): 0.06 µg/mL (≈ 0.0306 µM); IC50 at 48 h (in vitro): 1160 µM
